The source of these data is patent US8592161B2, “Mutational profiles in HIV-1 protease correlated with phenotypic drug resistance” (Janssen R&D Ireland, priority 2002, dated 2013).

Assay in all cases: In vitro antiviral activity in acutely infected MT4 cells, selected strain
Common to all, as to assay type: cell-based

Experiment [1] deals with HIV-1 strain selected with Comp 1 (20 nM, 94 days), protease R41G/R V82V/I. The settings on record: for EC50: Human immunodeficiency virus 1, Table 4, strain R41G/R V82V/I (Comp 1 20 nM, 94 days), read-out: median EC50; for median FC (fold change in EC50 as compared to wild type): Table 4, strain R41G/R V82V/I (Comp 1 20 nM, 94 days). The procedure: (§1) Determination of the antiviral activity of a compound was done as described in Pauwels R. et al. (J Virol Methods 1988; 20(4):309-21). Various concentrations of the test compounds were brought into each well of a flat-bottom microtiter plate. Subsequently, HIV and MT4 cells were added to a final concentration of 200-250 50% cell culture infectious doses (CCID50)/well and 30,000 cells/well, respectively. After 5 days of incubation (37° C., 5% CO2), the cytopathic effect of the replicating virus was determined by the tetrazolium colorimetric MTT method. The dose protecting 50% of the cells from virus cytopathic effect was defined as the EC50, while the dose achieving 90% protection was defined as the EC90.
(§2) MT4-LTR-EGFP cells were infected at a multiplicity of infection (MOI) of 0.01 to 0.001 CCID50/cell in the presence of inhibitor. The starting concentration of the inhibitor was two to tee times the EC50, a suboptimal concentration. The cultures were sub-cultivated and scored microscopically on virus-induced fluorescence and cytopathicity every 3-4 days. The cultures were sub-cultivated in the presence of the same compound concentration until signs of virus replication were observed. The escaping virus was further cultivated in the presence of the same inhibitor concentration in order to enrich the population in resistant variants. If full virus breakthrough was observed the supernatant was collected and stored (new virus strain). Afterwards, the same virus was challenged with a higher compound concentration in order to select variants able to grow in the presence of as high as possible inhibitor concentrations. From the new viruses, a virus stock was grown in the absence of inhibitor.
(§3) In vitro drug selection experiments starting from wild-type HIV-1 under pressure of compound 1, compound 2, and Nelfinavir (NFV) have been performed. Tables 1, 2, 3, 4, and 5 show the genotypic and phenotypic characterization of the selected strains.

In experiment [2] the test system is HIV-1/LAI strain selected with Comp 1 (100 nM, 139 days), protease S37S/N R41R/K K70E. The settings on record: for EC50: Human immunodeficiency virus 1, Table 2, strain S37S/N R41R/K K70E (Comp 1 100 nM, 139 days), read-out: median EC50; for median FC (fold change in EC50 as compared to wild type): Table 2, strain S37S/N R41R/K K70E (Comp 1 100 nM, 139 days). The method, then: as §1, §2, §3

The test system of experiment [3] is HIV-1/LAI strain selected with Comp 1 (200 nM, 328 days), protease S37N R41S K70E. As to conditions: for EC50: Human immunodeficiency virus 1, Table 2, strain S37N R41S K70E (Comp 1 200 nM, 328 days), read-out: median EC50; for median FC (fold change in EC50 as compared to wild type): Table 2, strain S37N R41S K70E (Comp 1 200 nM, 328 days). The method, then:
as §1, §2, §3

Experiment [4] concerns HIV-1/LAI strain selected with Comp 1 (30 nM, 70 days), protease K70E. The settings on record: for EC50: Human immunodeficiency virus 1, Table 2, strain K70E (Comp 1 30 nM, 70 days), read-out: median EC50; for median FC (fold change in EC50 as compared to wild type): Table 2, strain K70E (Comp 1 30 nM, 70 days). The procedure: as §1, §2, §3
Experiment [5] relates to HIV-1/LAI strain selected with NFV (1000 nM, 35 days), protease D30N M46I. The settings on record: for EC50: Human immunodeficiency virus 1, Table 5, strain D30N M46I (NFV 1000 nM, 35 days), read-out: median EC50; for median FC (fold change in EC50 as compared to wild type): Table 5, strain D30N M46I (NFV 1000 nM, 35 days). The procedure: as §1, §2, §3
Experiment [6] concerns HIV-1/LAI strain selected with NFV (3000 nM, 69 days), protease L10F D30N M46I V77I I85V/I N88D/N. As to conditions: for EC50: Human immunodeficiency virus 1, Table 5, strain L10F D30N M46I V77I I85V/I N88D/N (NFV 3000 nM, 69 days), read-out: median EC50; for median FC (fold change in EC50 as compared to wild type): Table 5, strain L10F D30N M46I V77I I85V/I N88D/N (NFV 3000 nM, 69 days). The procedure:
as §1, §2, §3

As usually defined, the EC50 is the midpoint of the concentration-response curve. Take `CC(C)(C)NC(=O)[C@@H]1C[C@@H]2CCCC[C@@H]2CN1C[C@@H](O)[C@H](Cc1ccccc1)NC(=O)[C@H](CC(N)=O)NC(=O)c1ccc2ccccc2n1` [Saquinavir]: the EC50 in experiment [1] was found to be 0.9 nM; in experiment [2] it was 0.7 nM; in experiment [3], 4 nM; in experiment [4], 6 nM; in experiment [5], 1.8 nM; in experiment [6], 2.5 nM. For the same molecule, the “median FC (fold change in EC50 as compared to wild type)” value in experiment [1] turned out to be 0; in experiment [2], 0.1; in experiment [3], 1; in experiment [4] it was 1; in experiment [5], 0; in experiment [6], 0.

For `CC(C)(C)NC(=O)[C@@H]1CN(Cc2cccnc2)CCN1C[C@@H](O)C[C@@H](Cc1ccccc1)C(=O)N[C@H]1c2ccccc2C[C@H]1O` [Indinavir], the EC50 in experiment [1] was 3.1 nM; in experiment [2] it was 6.3 nM; in experiment [3] it was 5.5 nM; in experiment [4], 18 nM; in experiment [5], 7.9 nM. In addition, the “median FC (fold change in EC50 as compared to wild type)” value in experiment [1] stood at 0; in experiment [2], 1; in experiment [3], 0.5; in experiment [4], 2; in experiment [5], 1.

With `Cc1c(O)cccc1C(=O)N[C@@H](CSc1ccccc1)[C@H](O)CN1C[C@H]2CCCC[C@H]2C[C@H]1C(=O)NC(C)(C)C` [Nelfinavir], the EC50 in experiment [1] turned out to be 5.7 nM; in experiment [2], 9.7 nM; in experiment [3] it was 1.9 nM; in experiment [4] it was 39 nM; in experiment [5], 330 nM. Also, the “median FC (fold change in EC50 as compared to wild type)” value is listed as 0 in experiment [1]; 0.3 in experiment [2]; 0.1 in experiment [3]; 1 in experiment [4]; 9 in experiment [5].

`CC(C)CN(C[C@@H](O)[C@H](Cc1ccccc1)NC(=O)O[C@H]1CCOC1)S(=O)(=O)c1ccc(N)cc1` [Amprenavir]: the EC50 in experiment [1] stood at 7.3 nM; in experiment [2], 24 nM; in experiment [3], 15 nM; in experiment [4], 56 nM; in experiment [5], 28 nM; in experiment [6], 59 nM. Further, the “median FC (fold change in EC50 as compared to wild type)” value in experiment [1] turned out to be 0; in experiment [2] it was 1; in experiment [3], 1; in experiment [4], 3; in experiment [5] it was 1; in experiment [6] it was 3.
